From patent publication US20130158014A1, “METHOD FOR TREATING DISEASES ASSOCIATED WITH ALTERATIONS IN CELLULAR INTEGRITY USING RHO KINASE INHIBITOR COMPOUNDS” (priority 2008, published 2013) come the findings set out here.

The test system of data set [1] is ova-sensitized, ova-challenged mice. In words: Mouse ovalbumin sensitization model: eosinophils in BALF. In kind it is in vivo. The method, then: (§1) Male BALB/c mice were ordered from Charles River Laboratories (Raleigh, N.C.). The animals were approximately 19 to 21 grams at time of receipt. Upon arrival, the animals were randomized into groups of five males per cage and assigned to a dosing group. Animals were quarantined for 7 days under test conditions. They were observed daily for general health status and ability to adapt to the water bottles. Animals were sensitized on day 0 and 14 of study by an intraperitoneal injection with 20 μg of ovalbumin (ova) and 2.0 mg aluminum hydroxide (alum) which initiates the development of a specific T-helper (Th) cells type 2 resulting in asthmatic animals (denoted as Ova in the figures). One group of animals received an injection of saline to use as control animals (denoted as normal in the figures). All animals were challenged with aerosolized 1% ova once daily for 25 minutes on days 28, 29, and 30 (Zosky, et al. Respiratory Research. 2004; 5:15). Aerosol challenge consists of using an Aerogen Aeroneb nebulizer and controller with a particle size of 4-6 μm mass median aerodynamic diameter (MMAD) with a distribution of 400 μl per minute. This aerosol challenge is necessary to target the Th2-driven allergic inflammation in the lower airways. […]
(§2) Bronchoalveolar lavage fluid (BALF) was collected by infusing 3.0 ml of saline with 10% fetal calf serum into the lungs via the trachea and then withdrawing the fluid. The total amount of cells/ml of BALF fluid was determined via manual cell count on hemocytometer. The BALF was centrifuged, supernatant removed and analyzed for cytokine concentrations as described below, and cell pellet reconstituted in 500 μL of fluid. […] Following Hema3 stain, relative percentages of individual leukocytes were determined on a 200 cell count for each sample. The final concentration of individual leukocyte cell types per ml of BALF was determined by multiplication of the relative percentage of individual leukocytes with the total amount of cells/ml of BALF fluid.

Data set [2] relates to LPS-challenged mice. Description: LPS-induced neutrophilia assay. Conditions: intratracheal 0.5-50 μmol/kg one hour prior to LPS challenge; BALF four hours after; FIG. 12. The format is in vivo, mouse. How it is done: (§3) Male BALB/c mice, approximately 19 to 21 grams, were ordered from Charles River Laboratories (Raleigh, N.C.). All animals were challenged with aerosolized LPS (10 μg/ml) for 25 minutes on study day 0. LPS aerosol was generated using an Aerogen Aeroneb nebulizer and controller providing a flow of 400 μl/min and a particle size of 2-4 μm MMAD. Rolipram was administered i.p at 20 mg/kg. […] Total cell counts were determined using the Coulter Counter. For differential evaluations, BALF was centrifuged and cytospin slides prepared and stained […]. Manual leukocyte counts were then completed on 200 cells. The final concentration of individual leukocyte cell types per ml of BALF was determined by multiplication of the relative percentage of individual leukocytes with the total amount of cells/ml of BALF fluid. The concentration of IL-1β in the BALF samples was determined using commercially available Bio-plex kits (Bio-Rad).

Data set [3] concerns LPS-challenged mice. In words: LPS-induced cytokine production assay (IL-1β in BALF). In kind it is in vivo, mouse. Conditions: intratracheal, one hour prior to LPS challenge; BALF four hours after; FIG. 13. The method, then: as §3
Data set [4] can be described thus: Rat oral pharmacokinetics (plasma). The format is in vivo. Particulars: rat oral PK, mean n = 3 rats, 20-30 μmmol/kg.
Experimental: Plasma (EDTA K2 anticoagulant) was collected from male, cannulated, CD Sprague Dawley rats to determine the pharmacokinetics of formulations containing compound inhibitors of Rho kinase. Each animal was dosed orally with a 4 ml/kg solution or suspension of each test compound in 10 mM acetate buffered saline, pH 4.5 at a final concentration range of 20-30 μmmol/kg. Blood was collected at 0.25, 0.5, 1, 2, 4, 6, 8, and 24 hours. Plasma samples were assayed for the concentration of the test compound using an on-line, solid phase extraction LC/MS/MS analysis system.
Samples were analyzed on a QSTAR Elite, hybrid quadrupole time-of-flight mass spectrometer (Applied Biosystems, Framingham, Mass.) coupled with a Symbiosis Pharma integrated, on-line SPE-HPLC system (Spark Holland Inc., Plainsboro, N.J.). Analyst QS 2.0 software was used for instrument control, data acquisition and processing. […] Mobile Phase A consisted of 0.1% ammonium hydroxide in water and Mobile Phase B consisted of 0.1% formic acid in acetonitrile. Pharmacokinetic analyses were performed using WinNonlin software version 5.2 (Pharsight Corporation, Mountain View, Calif.).
As determined from the plasma concentration versus time curves, the time to peak and peak exposure are represented by the values Tmax and Cmax, respectively. The AUC values (nM*hr) shown were calculated as the areas under the plasma concentration versus time curves from time zero through the time of the last observable value and represent the total exposure of the compound over the course of the study. Half-life values or the amount of time required for the plasma levels of the compound to decline to half the initial value are represented as t1/2.
The test system of data set [5] is ova-sensitized, ova-challenged mice. In words: Prevention of airway hyperreactivity (Penh, methacholine) in mouse ovalbumin model. In kind it is in vivo. How it is done:
The anti-inflammatory dosing paradigm consists of dosing the animals once a day starting on day 27 and finishing on either day 30 or 31 (1 hr prior to the aerosolized ovalbumin challenges on days 28 to 30) but not on day 32 when hyperreactivity evaluation occurs. […] Exposure to the methacholine doses consisted of a 3 minute period during which a nebulizer was aerosolizing the methacholine and an additional 3 minute period following the cessation of nebulization. […] Enhanced pause (Penh), a unitless index of airway hyperreactivity, is derived from the expiratory side of the respiratory waveform measured via the plethysmograph and is used as an indirect measure of airway resistance and hyperreactivity. […] Following the methacholine dose response, BALF was collected and all animals were anesthetized, bled and euthanized. […] The Penh value at each of the dose levels of methacholine represents the 6-minute average response. Change from baseline (CFB) in Penh was calculated at each methacholine dose and the area under the curve (AUC) for these CFB values was calculated using the trapezoidal rule. This same approach was applied for each mouse across multiple experiments. […] Data from equal experimental conditions across experiments performed on different days were pooled for statistical analysis and data reporting. […] A random intercept for each experiment was assumed to account for possible similarities of the results obtained from a given experiment (i.e., as a “blocking effect”). […] For FIG. 9, linear AUC values from compound treated mice were reported as a percent of linear AUC values from vehicle-treated ovalbumin-sensitized/ovalbumin-challenged (asthmatic) mice.

The test system of data set [6] is murine eosinophils. Description: Murine eosinophil chemotaxis (eotaxin-induced). In kind it is cell-based, mouse. Conditions: 10 nM eotaxin challenge, one hour; FIG. 10. The method, then: Bronchoalveolar lavage was collected from ovalbumin sensitized and challenged mice in a volume of 2.5 mL lavage buffer. The lavage buffer was 0.9% saline with 10% fetal bovine serum. The pooled lavages were maintained on ice until use. The murine eosinophils were isolated using MACS cell separation (Miltenyi Biotech) by depletion of B cells and T cells by positive selection following incubation with antibody conjugated magnetic beads specific for CD45-R (B220) and CD90 (Thy 1.2), which bind B cells and T cells, respectively.
Eosinophil chemotaxis was assessed using a modified Boyden Chamber (Neuroprobe, 96-well) with a 5 μm pore membrane. The ability of the tested compounds to block chemotaxis induced by a 10 nM eotaxin challenge (mouse) or 1 nM eotaxin challenge (human) during one hour incubation at 37° C. with 5% CO2 was assessed. Chemotaxis was quantified via microscopy by counting the number of migrated cells in at least 3 view fields per treatment. […] FIG. 11 demonstates that chemotaxis was induced by eotaxin in human eosinophils.

Data set [7] concerns human eosinophils. In words: Human eosinophil chemotaxis (eotaxin-induced). Conditions: 1 nM eotaxin challenge, one hour; FIG. 11. The format is cell-based. The source says: Peripheral blood from healthy human volunteers was collected and the PMNs separated via Ficoll-paque density centrifugation followed by hypotonic lysis of the red blood cells. Subsequently, the human eosinophils were isolated from the cell suspension via StemCell Technologies Human Eosinophil Enrichment kit (Cat. No 19256) according to the manufacturer's recommendations. Briefly, unwanted cells were specifically labeled with dextran-coated magnetic nanoparticles using bispecific Tetrameric Antibody Complexes (TAC) directed against cell surface antigens on human blood cells: […] The unwanted cells are then separated from the unlabelled eosinophils using the EasySep® magnetic isolation procedure. […] FIG. 11 demonstates that chemotaxis was induced by eotaxin in human eosinophils.

The test system of data set [8] is ova-sensitized, ova-challenged mice. In words: Mouse ovalbumin sensitization model: cytokines (IL-5, Eotaxin, IL-13) in BALF. In kind it is in vivo. Conditions: oral on days 27 to 31. How it is done: as §1, with “5:15).” for “5:15). Aerosol challenge consists of using an Aerogen Aeroneb nebulizer and controller with a particle size of 4-6 μm mass median aerodynamic diameter (MMAD) with a distribution of 400 μl per minute. This aerosol challenge is necessary to target the Th2-driven allergic inflammation in the lower airways.”
as §2
The concentrations of cytokines in the BALF samples were determined using commercially available Bio-plex kits (Bio-Rad) for the detection of mouse IL-5, IL-13, and Eotaxin. The analysis of cytokine levels was measured using the Bio-Plex 200 (Bio-Rad) system according to the manufacturer's instructions.

In the case of `CS(=O)(=O)Nc1cccc(CN2CCC[C@H](Nc3ccc4[nH]ncc4c3)C2)c1` [Compound 1.091], the “eosinophils in BALF” value in data set [1] (dosed i.t. once a day, day 27 to day 30, FIG. 5) is “reduction of eosinophils”. In data set [2], the pulmonary neutrophilia influx result is “significant reduction”. Further, in data set [3], the “IL-1β in BALF” value is “reduction”. Further, in data set [4], the “AUC (0-last)” value is listed as “BLQ”, the Cmax result was “BLQ”, the Tmax result is “BLQ” and the Vz_F entry is on record as “BLQ”. Moreover, the t½ entry in data set [4] was “BLQ”. Further, the airway hyperreactivity result in data set [5] (intratracheal once a day, days 27 to 30, FIG. 9) was “prevention of airway hyperreactivity”.
As for `CS(=O)(=O)Nc1cccc(CN2CC[C@@H](Nc3cccc4cnccc34)C2)c1` [Compound 2.038], the “murine eosinophil chemotactic response” value in data set [6] is listed as “inhibited”. Moreover, in data set [1] (dosed orally once a day, day 27 to day 31, FIG. 4), the “eosinophils per ml of BALF” value is listed as “reduced”. In data set [7], the “human eosinophil chemotactic response” value was “inhibited”. Further, the “airway hyperreactivity to methacholine on Day 32” value in data set [5] (oral 15 μMol/kg once a day, days 27 to 31) is “prevention of airway hyperreactivity”. The “concentration of IL-5 in BALF” value in data set [8] (FIG. 6) is “reduced levels”. Also, in data set [8] (FIG. 7), the “concentration of Eotaxin in BALF” value is given as “reduced levels”. In addition, the “concentration of IL-13 in BALF” value in data set [8] (FIG. 8) was “reduced levels”.
